One may read the inhibition as the percentage by which the read-out fell short of the control. Usually IC50 stands for the point on the concentration scale where inhibition reaches its midpoint.

T1 sequence (P53355 whole entry): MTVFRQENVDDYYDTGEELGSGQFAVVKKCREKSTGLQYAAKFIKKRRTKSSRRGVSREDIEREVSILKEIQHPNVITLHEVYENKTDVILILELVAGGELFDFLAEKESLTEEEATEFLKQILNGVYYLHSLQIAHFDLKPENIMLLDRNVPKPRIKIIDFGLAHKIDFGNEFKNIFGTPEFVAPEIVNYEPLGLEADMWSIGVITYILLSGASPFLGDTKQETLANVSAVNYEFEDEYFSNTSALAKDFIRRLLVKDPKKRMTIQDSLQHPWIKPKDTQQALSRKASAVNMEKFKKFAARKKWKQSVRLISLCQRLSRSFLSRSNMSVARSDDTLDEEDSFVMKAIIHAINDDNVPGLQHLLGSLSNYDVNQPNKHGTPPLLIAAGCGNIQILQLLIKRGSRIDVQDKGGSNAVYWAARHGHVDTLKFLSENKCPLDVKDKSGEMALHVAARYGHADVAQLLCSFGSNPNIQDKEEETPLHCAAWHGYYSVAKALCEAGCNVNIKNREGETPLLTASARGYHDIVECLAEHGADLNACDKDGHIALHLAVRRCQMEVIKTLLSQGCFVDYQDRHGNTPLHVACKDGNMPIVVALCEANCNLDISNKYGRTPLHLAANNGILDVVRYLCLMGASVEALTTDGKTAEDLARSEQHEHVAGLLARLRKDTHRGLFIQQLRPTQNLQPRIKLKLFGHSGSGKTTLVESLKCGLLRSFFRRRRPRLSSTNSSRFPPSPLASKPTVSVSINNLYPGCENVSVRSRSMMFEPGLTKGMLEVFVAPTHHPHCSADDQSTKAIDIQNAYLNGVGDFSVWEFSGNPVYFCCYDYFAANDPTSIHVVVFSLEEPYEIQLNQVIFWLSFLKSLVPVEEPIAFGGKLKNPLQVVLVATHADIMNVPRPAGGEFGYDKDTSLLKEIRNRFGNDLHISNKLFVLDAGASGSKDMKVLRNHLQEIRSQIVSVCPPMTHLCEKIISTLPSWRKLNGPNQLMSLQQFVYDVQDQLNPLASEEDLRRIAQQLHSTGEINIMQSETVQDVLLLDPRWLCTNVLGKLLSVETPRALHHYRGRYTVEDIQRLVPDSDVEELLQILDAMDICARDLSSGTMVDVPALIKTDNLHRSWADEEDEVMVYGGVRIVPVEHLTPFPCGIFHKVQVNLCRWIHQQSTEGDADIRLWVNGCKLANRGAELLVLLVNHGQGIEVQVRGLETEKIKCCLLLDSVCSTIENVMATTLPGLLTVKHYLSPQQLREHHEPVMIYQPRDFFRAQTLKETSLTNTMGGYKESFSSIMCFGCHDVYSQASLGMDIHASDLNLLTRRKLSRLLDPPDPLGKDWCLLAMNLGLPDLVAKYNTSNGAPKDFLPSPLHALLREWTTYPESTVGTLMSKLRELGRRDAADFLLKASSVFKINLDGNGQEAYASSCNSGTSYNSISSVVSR

One assay concerns the target T1, Death-associated protein kinase 1 (DAPK1) (Homo sapiens, UniProt P53355). As to the kind of experiment: single-dose kinase assay, % inhibition at […]. The assay is classed as biochemical. Conditions: read-out: % Inhibition against DAPK1 ^a.
On to `O=C(Nc1ccc(Oc2cccc(Cl)c2)c(Cl)c1)c1ccccn1` [4m, N-(3-chloro-4-(3-chlorophenoxy)phenyl) picolinamide], for which the inhibition at 10 µM was determined as 61.7%.
As to `O=C(Nc1ccc(Oc2cccc(Cl)c2)c(Cl)c1)c1cccnn1` [4n, N-(3-chloro-4-(3-chlorophenoxy)phenyl) pyridazine-3-carboxamide], the inhibition at 10 µM was found to be 61.5%.
`O=C(Nc1ccc(Oc2cccc(Cl)c2)c(Cl)c1)c1cccnc1` [4p, N-(3-chloro-4-(3-chlorophenoxy)phenyl) nicotinamide]: the inhibition at 10 µM came out at 61.5%.
Still for that read-out and setting: with `O=C(Nc1ccc(Oc2cccc(Cl)c2)c(Cl)c1)c1ccnnc1` [4r, N-(3-chloro-4-(3-chlorophenoxy)phenyl) pyridazine-4-carboxamide] the figure was 60%.

Another assay deals with T1, Death-associated protein kinase 1 (DAPK1). The assay can be described thus: 10-dose kinase assay (Reaction Biology HotSpot). The assay is classed as biochemical.
Details: not given
`O=C(Nc1ccc(Oc2ccc(F)cc2)c(Cl)c1)c1ccccn1` [4h, N-(3-chloro-4-(4-fluorophenoxy)phenyl) picolinamide] showed an IC50 of 6.81 µM.
The same measure, in the same setting: with `O=C(Nc1ccc(Oc2ccc(F)cc2)c(Cl)c1)c1cccnc1` [4j, N-(3-chloro-4-(4-fluorophenoxy)phenyl) nicotinamide] the figure was 1.7 µM; with `O=C(Nc1ccc(Oc2ccc(F)cc2)c(Cl)c1)c1ccncc1` [4k, N-(3-chloro-4-(4-fluorophenoxy)phenyl) isonicotinamide], 7.26 µM; with `O=C(Nc1ccc(Oc2cccc(Cl)c2)c(Cl)c1)c1ccncc1` [4q, N-(3-chloro-4-(3-chlorophenoxy)phenyl) isonicotinamide], 1.09 µM.

The values are drawn from publication PMC9504985, “Identification of Novel Aryl Carboxamide Derivatives as Death-Associated Protein Kinase 1 (DAPK1) Inhibitors with Anti-Proliferative Activities: Design, Synthesis, In Vitro, and In Silico Biological Studies” (Pharmaceuticals, 2022).
